# Measured values published in patent US20260284018A1, “DUAL INHIBITORS OF DYRK1A AND 5-HT2 FOR TREATING A BRAIN DISORDER” (THE REGENTS OF THE UNIVERSITY OF CALIFORNIA, priority 2023, published 2026).
# Experiments:
# [1] = system: 97 kinases; test: KINOMEscan scanEDGE, whole panel; format: binding; conditions: 10 μM
# Method: Compounds were screened at 10 μM using the DiscoverX KinomeSCAN™ assay. Results are reported as the % activity relative to the vehicle (i.e., DMSO) control, where lower values indicate higher affinity (see Table 1 for full scan data). The activity of HTW_A_8 fumarate at PIK3CG was minimal (33%) and barely met the threshold for inclusion. […] Data for harmine were obtained from a previous report.
# Kinome Scan. Compound HTW_A_8 fumarate was screened against 97 kinases at a single concentration of 10 μM at Eurofins DiscoverX using their KINOMEscan™ scanEDGE assay. The results are reported as the % activity relative to DMSO control, where lower values indicate higher affinity. See Table 1 for the full kinome profile.
# [2] = system: cortical neurons; test: Spinogenesis; format: cell-based, rat; conditions: cortical neurons (DIV15), 10 μM, 24 h
# Method: (A) Representative images of cortical neurons (DIV15) treated with compounds (10 μM) for 24 h. (B) Quantification of dendritic spine density (n=29-55 neurons per treatment condition). Data are represented as mean±SEM. *p<0.05, **p<0.01, ***p<0.001, ****p<0.0001, as compared to the vehicle control following a one-way ANOVA with Dunnett's post hoc test. VEH=vehicle (0.2% DMSO).
# Spinogenesis. Spinogenesis experiments were performed as previously described with the exception that cells were treated at DIV14 and fixed 24 h after treatment on DIV15. The images were taken on a Nikon HCA confocal microscope with a 100×/NA 1.45 oil objective. Experiments were performed in duplicate with plates prepared using neurons obtained from independent pregnant dams. Images were analyzed by an experimenter blinded to the treatment conditions.
# [3] = target: T1, PKAC-alpha (Homo sapiens, UniProt P17612); conditions: 10 μM; cited from earlier work
# T1 construct: purchased Eurofins DiscoverX KINOMEscan scanEDGE
# [4] = target: T2, CDK3 (Homo sapiens, UniProt Q00526); conditions: 10 μM; cited from earlier work
# T2 construct: purchased Eurofins DiscoverX
# [5] = target: T3, INSR (Homo sapiens, UniProt P06213); conditions: 10 μM; cited from earlier work
# T3 construct: purchased Eurofins DiscoverX
# [6] = target: T4, AURKB (Homo sapiens, UniProt Q96GD4); conditions: 10 μM; cited from earlier work
# T4 construct: purchased Eurofins DiscoverX
# [7] = target: T5, AKT2 (Homo sapiens, UniProt P31751); conditions: 10 μM; cited from earlier work
# T5 construct: purchased Eurofins DiscoverX
# [8] = target: T6, AURKA (Homo sapiens, UniProt O14965); conditions: 10 μM; cited from earlier work
# T6 construct: purchased Eurofins DiscoverX
# [9] = target: T7, ACVR1B (Homo sapiens, UniProt P36896); conditions: 10 μM; cited from earlier work
# T7 construct: purchased Eurofins DiscoverX
# [10] = target: T8, PIM2 (Homo sapiens, UniProt Q9P1W9); conditions: 10 μM; cited from earlier work
# T8 construct: purchased Eurofins DiscoverX (KINOMEscan scanEDGE service)
# [11] = target: T9, MEK2 (Homo sapiens, UniProt P36507); conditions: 10 μM; cited from earlier work
# T9 construct: purchased Eurofins DiscoverX (KINOMEscan scanEDGE service)
# [12] = target: T10, FGFR3 (Homo sapiens, UniProt P22607); conditions: 10 μM; cited from earlier work
# T10 construct: purchased Eurofins DiscoverX
# [13] = target: T11, PCTK1 (Homo sapiens, UniProt Q00536); conditions: 10 μM; cited from earlier work
# T11 construct: purchased Eurofins DiscoverX (KINOMEscan scanEDGE service)
# [14] = target: T12, ABL1-nonphosphorylated (Homo sapiens, UniProt P00519); conditions: 10 μM; cited from earlier work
# T12 construct: purchased Eurofins DiscoverX
# [15] = target: T13, KIT(V559D, T670I) (Homo sapiens, UniProt P10721, T670I/V559D); conditions: 10 μM; cited from earlier work
# T13 construct: purchased Eurofins DiscoverX
# [16] = target: T14, CDK11 (Homo sapiens, UniProt Q9BWU1); conditions: 10 μM; cited from earlier work
# T14 construct: purchased Eurofins DiscoverX
# [17] = target: T15, SRPK3 (Homo sapiens, UniProt Q9UPE1); conditions: 10 μM; cited from earlier work
# T15 construct: purchased Eurofins DiscoverX KINOMEscan scanEDGE
# [18] = target: T16, TSSK1B (Homo sapiens, UniProt Q9BXA7); conditions: 10 μM; cited from earlier work
# T16 construct: purchased Eurofins DiscoverX KINOMEscan scanEDGE
# [19] = target: T17, RAF1 (Homo sapiens, UniProt P04049); conditions: 10 μM; cited from earlier work
# T17 construct: purchased Eurofins DiscoverX KINOMEscan scanEDGE
# [20] = target: T18, MEK1 (Homo sapiens, UniProt Q02750); conditions: 10 μM; cited from earlier work
# T18 construct: purchased Eurofins DiscoverX (KINOMEscan scanEDGE service)
# [21] = target: T19, PIK3CG (Homo sapiens, UniProt P48736); conditions: 10 μM; cited from earlier work
# T19 construct: purchased Eurofins DiscoverX (KINOMEscan scanEDGE service)
# [22] = target: T20, TGFBR1 (Homo sapiens, UniProt P36897); conditions: 10 μM; cited from earlier work
# T20 construct: purchased Eurofins DiscoverX KINOMEscan scanEDGE
# [23] = target: T21, JNK1 (Homo sapiens, UniProt P45983); conditions: 10 μM; cited from earlier work
# T21 construct: purchased Eurofins DiscoverX
# [24] = target: T22, BMPR2 (Homo sapiens, UniProt Q13873); conditions: 10 μM; cited from earlier work
# T22 construct: purchased Eurofins DiscoverX
# [25] = target: T23, CHEK1 (Homo sapiens, UniProt O14757); conditions: 10 μM; cited from earlier work
# T23 construct: purchased Eurofins DiscoverX
# [26] = target: T24, CDK7 (Homo sapiens, UniProt P50613); conditions: 10 μM; cited from earlier work
# T24 construct: purchased Eurofins DiscoverX
# [27] = target: T25, DCAMKL1 (Homo sapiens, UniProt O15075); conditions: 10 μM; cited from earlier work
# T25 construct: purchased Eurofins DiscoverX
# [28] = target: T26, EGFR (Homo sapiens, UniProt P00533); conditions: 10 μM; cited from earlier work
# T26 construct: purchased Eurofins DiscoverX
# [29] = target: T27, ERBB2 (Homo sapiens, UniProt P04626); conditions: 10 μM; cited from earlier work
# T27 construct: purchased Eurofins DiscoverX
# [30] = target: T28, TIE2 (Homo sapiens, UniProt Q02763); conditions: 10 μM; cited from earlier work
# T28 construct: purchased Eurofins DiscoverX KINOMEscan scanEDGE
# T14 sequence (Q9BWU1 whole entry): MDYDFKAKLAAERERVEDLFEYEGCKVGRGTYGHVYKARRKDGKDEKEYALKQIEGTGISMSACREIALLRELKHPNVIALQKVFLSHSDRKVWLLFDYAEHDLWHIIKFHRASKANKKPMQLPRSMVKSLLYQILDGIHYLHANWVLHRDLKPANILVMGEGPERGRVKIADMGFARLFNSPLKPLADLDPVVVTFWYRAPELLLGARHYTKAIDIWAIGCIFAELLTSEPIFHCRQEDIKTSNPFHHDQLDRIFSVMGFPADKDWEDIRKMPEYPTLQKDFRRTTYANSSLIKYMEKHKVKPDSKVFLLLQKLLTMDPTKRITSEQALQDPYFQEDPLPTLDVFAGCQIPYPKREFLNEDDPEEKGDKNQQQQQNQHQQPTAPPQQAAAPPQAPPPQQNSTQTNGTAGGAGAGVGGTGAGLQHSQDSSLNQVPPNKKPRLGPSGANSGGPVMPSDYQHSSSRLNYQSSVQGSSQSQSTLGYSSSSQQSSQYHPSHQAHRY
# T5 sequence (P31751 whole entry): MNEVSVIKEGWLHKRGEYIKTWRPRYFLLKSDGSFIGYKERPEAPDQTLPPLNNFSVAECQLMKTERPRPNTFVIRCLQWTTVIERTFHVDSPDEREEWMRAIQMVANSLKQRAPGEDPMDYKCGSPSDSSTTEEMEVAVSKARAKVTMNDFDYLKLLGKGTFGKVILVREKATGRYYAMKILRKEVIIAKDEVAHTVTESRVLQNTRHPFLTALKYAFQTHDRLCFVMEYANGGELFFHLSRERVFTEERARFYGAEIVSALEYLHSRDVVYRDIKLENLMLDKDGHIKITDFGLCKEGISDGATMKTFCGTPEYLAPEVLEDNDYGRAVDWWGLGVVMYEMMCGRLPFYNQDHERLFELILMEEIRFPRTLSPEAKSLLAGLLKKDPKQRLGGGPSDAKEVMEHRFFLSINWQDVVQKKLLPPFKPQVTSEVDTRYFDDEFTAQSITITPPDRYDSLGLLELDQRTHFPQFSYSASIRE
# T8 sequence (Q9P1W9 whole entry): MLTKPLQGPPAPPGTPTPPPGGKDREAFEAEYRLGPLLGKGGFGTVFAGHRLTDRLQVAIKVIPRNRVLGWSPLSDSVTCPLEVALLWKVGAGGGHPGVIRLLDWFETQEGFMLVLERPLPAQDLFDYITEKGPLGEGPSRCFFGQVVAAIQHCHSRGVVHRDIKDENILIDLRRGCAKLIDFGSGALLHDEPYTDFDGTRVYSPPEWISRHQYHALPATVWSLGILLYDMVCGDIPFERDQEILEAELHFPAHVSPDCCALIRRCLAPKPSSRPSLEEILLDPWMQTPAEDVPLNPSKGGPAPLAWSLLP
# T18 sequence (Q02750 whole entry): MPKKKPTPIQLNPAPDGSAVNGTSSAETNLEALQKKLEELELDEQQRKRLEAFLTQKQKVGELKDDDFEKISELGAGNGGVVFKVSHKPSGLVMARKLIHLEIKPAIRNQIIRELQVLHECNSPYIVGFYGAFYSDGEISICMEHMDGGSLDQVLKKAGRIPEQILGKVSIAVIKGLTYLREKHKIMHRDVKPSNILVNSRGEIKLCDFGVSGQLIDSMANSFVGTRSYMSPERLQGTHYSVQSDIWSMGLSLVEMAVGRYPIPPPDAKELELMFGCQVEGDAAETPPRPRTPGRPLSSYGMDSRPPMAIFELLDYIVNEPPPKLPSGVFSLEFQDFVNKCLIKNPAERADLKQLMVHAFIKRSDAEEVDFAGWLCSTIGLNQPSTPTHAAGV
# T24 sequence (P50613 whole entry): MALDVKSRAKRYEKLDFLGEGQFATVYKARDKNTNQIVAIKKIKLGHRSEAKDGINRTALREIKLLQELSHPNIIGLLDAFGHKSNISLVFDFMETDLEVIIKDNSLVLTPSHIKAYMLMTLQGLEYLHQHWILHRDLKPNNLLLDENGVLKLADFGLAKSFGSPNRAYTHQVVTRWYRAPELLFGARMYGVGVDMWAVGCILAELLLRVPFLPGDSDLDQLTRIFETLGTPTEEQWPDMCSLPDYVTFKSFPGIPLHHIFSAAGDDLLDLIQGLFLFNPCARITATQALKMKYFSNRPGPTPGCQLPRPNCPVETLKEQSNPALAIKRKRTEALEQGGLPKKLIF
# T17 sequence (P04049 whole entry): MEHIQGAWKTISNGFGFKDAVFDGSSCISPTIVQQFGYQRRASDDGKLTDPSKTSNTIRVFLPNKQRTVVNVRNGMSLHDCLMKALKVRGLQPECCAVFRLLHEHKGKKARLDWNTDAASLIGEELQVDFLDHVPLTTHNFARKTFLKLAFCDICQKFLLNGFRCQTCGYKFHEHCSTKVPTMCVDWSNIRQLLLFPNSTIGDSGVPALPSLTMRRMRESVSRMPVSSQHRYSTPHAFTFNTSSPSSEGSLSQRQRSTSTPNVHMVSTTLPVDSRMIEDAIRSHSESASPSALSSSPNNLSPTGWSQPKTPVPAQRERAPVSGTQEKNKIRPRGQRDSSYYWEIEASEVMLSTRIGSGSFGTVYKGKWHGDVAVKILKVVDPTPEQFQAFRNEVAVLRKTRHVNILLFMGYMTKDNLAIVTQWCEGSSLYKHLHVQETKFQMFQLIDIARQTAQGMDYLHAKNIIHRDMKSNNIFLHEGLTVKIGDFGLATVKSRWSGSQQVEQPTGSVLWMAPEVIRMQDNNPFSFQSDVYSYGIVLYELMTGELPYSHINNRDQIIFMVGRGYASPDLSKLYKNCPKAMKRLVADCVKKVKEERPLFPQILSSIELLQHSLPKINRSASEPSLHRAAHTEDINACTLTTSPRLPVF
# T22 sequence (Q13873 27-1038): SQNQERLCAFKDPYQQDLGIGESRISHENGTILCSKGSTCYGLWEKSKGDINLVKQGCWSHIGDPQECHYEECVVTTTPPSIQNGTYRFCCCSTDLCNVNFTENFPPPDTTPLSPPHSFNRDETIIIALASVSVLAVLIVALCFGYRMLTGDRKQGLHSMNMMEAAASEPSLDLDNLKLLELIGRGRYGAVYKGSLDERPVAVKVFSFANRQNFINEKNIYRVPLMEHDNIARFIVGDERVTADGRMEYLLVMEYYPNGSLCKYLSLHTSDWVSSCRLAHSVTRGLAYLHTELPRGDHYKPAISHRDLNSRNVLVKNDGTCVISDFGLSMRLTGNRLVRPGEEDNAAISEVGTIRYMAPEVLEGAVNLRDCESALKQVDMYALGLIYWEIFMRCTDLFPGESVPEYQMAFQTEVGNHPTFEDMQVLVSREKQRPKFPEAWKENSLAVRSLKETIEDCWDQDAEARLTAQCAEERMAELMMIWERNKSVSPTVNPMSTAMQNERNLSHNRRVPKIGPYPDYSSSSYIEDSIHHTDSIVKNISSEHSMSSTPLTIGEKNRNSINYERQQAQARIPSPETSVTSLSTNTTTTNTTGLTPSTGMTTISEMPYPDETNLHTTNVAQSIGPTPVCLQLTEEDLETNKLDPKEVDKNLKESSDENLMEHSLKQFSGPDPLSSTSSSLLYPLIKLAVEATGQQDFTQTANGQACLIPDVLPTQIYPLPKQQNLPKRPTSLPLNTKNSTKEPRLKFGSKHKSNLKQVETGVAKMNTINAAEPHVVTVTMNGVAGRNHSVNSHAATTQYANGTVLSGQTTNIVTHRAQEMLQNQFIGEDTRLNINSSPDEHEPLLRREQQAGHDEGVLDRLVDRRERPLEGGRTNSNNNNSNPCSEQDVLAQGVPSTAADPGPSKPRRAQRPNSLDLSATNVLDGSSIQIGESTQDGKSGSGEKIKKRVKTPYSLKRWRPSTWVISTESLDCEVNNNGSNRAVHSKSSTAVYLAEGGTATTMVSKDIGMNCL
# T19 sequence (P48736 whole entry): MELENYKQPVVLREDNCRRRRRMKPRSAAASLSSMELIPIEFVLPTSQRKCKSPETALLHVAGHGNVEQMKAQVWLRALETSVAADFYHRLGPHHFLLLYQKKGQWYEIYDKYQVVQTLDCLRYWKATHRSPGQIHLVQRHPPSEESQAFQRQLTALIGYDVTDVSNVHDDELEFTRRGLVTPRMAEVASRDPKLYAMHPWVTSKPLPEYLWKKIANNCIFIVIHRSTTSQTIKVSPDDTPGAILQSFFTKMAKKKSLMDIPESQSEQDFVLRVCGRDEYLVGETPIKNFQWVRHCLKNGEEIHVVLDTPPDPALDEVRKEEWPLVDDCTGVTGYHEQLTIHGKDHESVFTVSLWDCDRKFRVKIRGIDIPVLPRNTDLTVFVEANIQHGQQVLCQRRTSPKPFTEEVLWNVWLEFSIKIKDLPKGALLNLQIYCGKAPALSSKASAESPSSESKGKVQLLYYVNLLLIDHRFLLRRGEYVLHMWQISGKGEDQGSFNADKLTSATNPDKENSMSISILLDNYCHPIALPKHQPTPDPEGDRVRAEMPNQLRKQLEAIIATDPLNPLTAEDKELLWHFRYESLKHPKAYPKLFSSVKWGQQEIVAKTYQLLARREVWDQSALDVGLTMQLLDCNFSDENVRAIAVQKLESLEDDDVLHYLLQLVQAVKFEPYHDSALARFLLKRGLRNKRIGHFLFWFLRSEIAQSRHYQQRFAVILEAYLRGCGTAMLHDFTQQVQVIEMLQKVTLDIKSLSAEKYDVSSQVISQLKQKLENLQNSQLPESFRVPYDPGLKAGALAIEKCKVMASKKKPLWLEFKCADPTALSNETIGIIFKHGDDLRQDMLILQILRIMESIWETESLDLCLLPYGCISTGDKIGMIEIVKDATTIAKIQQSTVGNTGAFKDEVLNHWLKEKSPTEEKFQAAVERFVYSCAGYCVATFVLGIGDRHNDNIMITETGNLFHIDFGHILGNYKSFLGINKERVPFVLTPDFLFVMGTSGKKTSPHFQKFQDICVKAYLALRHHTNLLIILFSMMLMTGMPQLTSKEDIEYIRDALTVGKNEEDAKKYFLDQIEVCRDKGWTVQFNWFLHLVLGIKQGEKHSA
compound,measurement,setting,value
"COc1ccc2c3ccnc(C)c3n(CCN(C)C)c2c1.O=C(O)/C=C/C(=O)O [HTW_A_8 fumarate, 2-(7-methoxy-1-methyl-9H-pyrido[3,4-b]indol-9-yl)-N,N-dimethylethan-1-amine Fumarate Salt (2:3)]",activity at other kinases of the LIPID family (besides PIK3CG),[1],did not exhibit activity for any other kinase in the LIPID family
same,kinase family selectivity,[1]; 97 kinases,selective for kinases in the CMGC family
same,dendritic spine density,[2],significantly increases dendritic spine density
"COc1ccc2c(c1)[nH]c1c(C)nccc12 [Harmine, harmine]",Percent Control,[3],88%
same,Percent Control,[4],100%
same,Percent Control,[5],100%
same,Percent Control,[6],80%
same,Percent Control,[7],80%
same,Percent Control,[8],85%
same,Percent Control,[9],91%
same,Percent Control,[10],39%
same,Percent Control,[11],96%
same,Percent Control,[12],94%
same,Percent Control,[13],100%
same,Percent Control,[14],90%
same,Percent Control,[15],92%
same,Percent Control,[16],83%
same,Percent Control,[17],84%
same,Percent Control,[18],100%
same,Percent Control,[19],89%
same,Percent Control,[20],79%
same,Percent Control,[21],49%
same,Percent Control,[22],91%
same,Percent Control,[23],41%
same,Percent Control,[24],96%
same,Percent Control,[25],96%
same,Percent Control,[26],21%
same,Percent Control,[27],79%
same,Percent Control,[28],96%
same,Percent Control,[29],85%
same,Percent Control,[30],94%
